According to patent publication US20110263539A1, “SHIP 1 MODULATOR COMPOUNDS” (THE UNIVERSITY OF BRITISH COLUMBIA, priority 2006, published 2011):

Legend:
SHIP C2 domain = assay: Protein lipid overlay assay; type: binding; conditions: 4 μM Compound 100
Experimental: Protein lipid overlay (PLO) assays were performed essentially as described with minor modifications. Lyophilized phosphatidylinositol-3,4-bisphosphate diC16 (PIP2, Echelon Biosciences, Salt Lake City, Utah) was reconstituted in a 2:1.8 solution of methanol and water. PVDF membranes (Millipore, Missisauga, Ont) were initially wetted in methanol for 1 minute, and washed 3×5 min with water, and gently agitated in TBST buffer (20 mM Tris pH 7.5, 0.15 M NaCl (TBS) with 0.05% Tween 20) at 23° C. overnight. Treated membranes were air-dried and dilutions of reconstituted lipids were spotted in 1 μl aliquots to give the indicated amount of PIP2 per membrane spot. Membranes were dried completely and blocked with blocking buffer (3% BSA in TBS with 0.05% NaN3) for 1 h at 23° C. Purified, recombinant C2 domain was diluted into blocking buffer (5 μM final) and treated with 4 μM Compound 100 or EtOH control for 30 min at 23° C. prior to overnight incubation with the PIP2 spotted membranes. […] After washing, bound proteins were detected and quantified on a Li-Cor Odyssey scanner (Lincoln, Nebr.).
Isolated recombinant, His6-tagged C2 domain was expressed and its PI-3,4-P2 binding ability was determined using protein lipid overlay assays. Purified C2 domain was incubated with membrane strips spotted with PI-3,4-P2 and bound protein detected using an anti-His6 antibody. […]

SHIP enzyme = assay: In vitro SHIP enzyme assay (Assay 1); type: biochemical; on Assay Number 1: SHIP enzyme assay: key: a ‘+’ indicates a positive result for desired activity; a ‘−’ indicates a negative result for desired activity
Experimental: Assay 1) In vitro testing in a SHIP enzyme assay. Test compounds were dissolved in a suitable solvent (e.g. EtOH, DMSO and others) and diluted into aqueous buffer (20 mM Tris HCl, pH 7.5 and 10 mM MgCl2). SHIP enzyme assays were performed in 96-well microtitre plates with 10 ng of enzyme/well in a total volume of 25 μL of 20 mM Tris HCl, pH 7.5 and 10 mM MgCl2. SHIP enzyme was incubated with test extracts (provided in solvent) or vehicle for 15 min at 23° C. before the addition of 100 μM inositol-1,3,4,5-tetrakisphosphate (Echelon Biosciences Inc, Salt Lake City, Utah). After 20 min at 37° C. and the amount of inorganic phosphate released assessed by the addition of Malachite Green reagent and absorbance measurement at 650 nm.
For in vitro testing in the SHIP enzyme assay, AQX-016A and Compound 100 were dissolved in EtOH and diluted into aqueous buffer (20 mM Tris HCl, pH 7.5 and 10 mM MgCl2). The actual concentration of drug in solution was determined by optical density measurement at 280 nm (λmax for both compounds) after high speed centrifugation at 14 000×g for 30 min to remove precipitated drug. For testing on cells, compounds were formulated in the carrier cyclodextrin (Cyclodex Technologies, High Springs, Fla.) at 6 mM (2 mg/mL). For oral administration to animals, compounds were dissolved in 100% cremophore EL (Sigma-Aldrich Canada, Oakville, Ontario) at 150 mM (50 mg/mL) prior to dilution to 6 mM in phosphate buffer saline. However, while these compounds caged in cyclodextrin or formulated in cremophore EL micelles were very soluble in aqueous solution, they could not be used in the SHIP enzyme assays because of interference from both cyclodextrin and cremophore EL.
N-terminal His6 tagged SHIP enzyme was expressed in mammalian 293T cells by transient transfection with pME18S-His-SHIP plasmid and purified to >95% homogeneity by Ni-chelating bead chromatography (Qiagen, Mississauga, Ontario). Recombinant SHIP C2 domain (amino acid residues 725 to 863) was expressed in E. coli transformed with a pET28C expression vector constructed as described below. Recombinant protein purified from the cell lysates by Nichelating bead chromatography was >95% pure.
In vitro SHIP enzyme assay. SHIP enzyme assays were performed in 96-well microtitre plates with 10 ng of enzyme/well in a total volume of 25 μL of 20 mM Tris HCl, pH 7.5 and 10 Mm MgCl2. SHIP enzyme was incubated with test extracts (provided in DMSO) or vehicle for 15 min at 23° C. before the addition of 100 μM inositol-1,3,4,5-tetrakisphosphate (Echelon Biosciences Inc, Salt Lake City, Utah). After 20 min at 37° C. and the amount of inorganic phosphate released assessed by the addition of Malachite Green reagent and absorbance measurement at 650 nm. SHIP2 enzyme was purchased from Echelon Biosciences (Salt Lake City, Utah) and an equivalent amount of inositol phosphatase activity was used in the in vitro enzyme assay. Enzyme data are expressed as the mean of triplicates +/−SEM. Experiments were performed at least 3 times. (FIGS. 7A and 7B).

J774.1a macrophage cells = assay: Macrophage TNF-α production (Assay 2); type: cell-based; conditions: 10 μg/mL test compound, 100 ng/mL LPS, ELISA; further: key: a ‘+’ indicates a positive result for desired activity; a ‘−’ indicates a negative result for desired activity
Experimental: Assay 2) Macrophage TNF-α production. J774.1a macrophage cells were treated with 10 μg/mL of test compound dissolved in solvent (e.g. cyclodextran) for 40 minutes prior to the addition of 100 ng/mL LPS. Culture supernatants were collected after 2 hr and 5 hr for TNF-α determination by ELISA.

Mast cells = assay: Stimulation of mast cells by FcεRI crosslinking (Assay 4); type: cell-based; conditions: anti-DNP IgE, DNP-HSA
Experimental: Assay 4) Stimulation of mast cells by FcåRI crosslinking. Mast cells were pre-loaded overnight in BMMC medium lacking IL-3 with 0.1 μg/ml anti-DNP IgE (SPE-7, Sigma, Oakville, Ont). For calcium flux measurements, cells were incubated with 2 μM fura 2-acetoxymethyl ester (Molecular Probes, Eugene, Oreg.) in Tyrode's buffer at 23° C. for 45 min. Cells were then washed and incubated in the presence of the test compound 30 min prior to stimulation with the indicated concentration of DNP-human serum albumin (DNP-HSA). Calcium influx was monitored by spectrofluorometry as described previously. For analysis of intracellular signaling, cells were pre-loaded with anti-DNP IgE as above, pre-treated with the test compound for 30 min at 37° C. and stimulated with 20 ng/ml DNP-HSA for 5 min. Total cell lysates were then prepared and analyzed for phospho-PKB, phospho-p38^MAPK, phospho-MAPK, Grb-2 (Cell Signalling, Mississauga, Ont) and SHIP^6 by immunoblot analysis.

Structure (SMILES): Cc1cc(O)cc2c1[C@]1(C)CCC3C(C)(C)CCC[C@]3(C)[C@H]1C2 (some centres unmarked) [Compound 100]
- binding of C2 domain to PI-3,4-P2 (SHIP C2 domain): inhibited
- Assay Number 1: SHIP enzyme assay (SHIP enzyme; 100 μM inositol-1,3,4,5-tetrakisphosphate, Malachite Green): +
- SHIP enzyme activity (SHIP enzyme; wild-type SHIP): enhanced SHIP enzyme activity in vitro
- Assay Number 2: Macrophage TNF-α production (J774.1a macrophage cells): +
- Assay Number 4: Stimulation of mast cells by FcεRI crosslinking (Mast cells): +
